Measured values taken from US8012463B2, “Coordination complex of diaminocyclohexaneplatinum(II) with block copolymer containing poly(carboxylic acid) segment and antitumor agent comprising the same” (Toudai TLO, Ltd., priority 2003, dated 2011).

Legend:
[1] = test system: mouse colon 26 (C-26) cell strain; test: Cytotoxicity in vitro, growth inhibition by MTT method; format: cell-based; conditions: C-26 cells
Experimental: Growth inhibiting activities of free CDDP, CDDP micelle, DACH Pt micelle, mixtures of DACH Pt micelle and CDDP micelle at various mixing ratios (1/3, 1/1 and 3/1) against mouse colon 26 (C-26) cell strain were evaluated with MTT method. 5,000 cells were cultured in a 96 well-multiplate supplied with 50 μl of RPMI 1640 medium containing 10% fetal bovine serum. The cells were exposed to drugs for 48 and 72 hours. MTT solution was added, and 150 μl of a solution containing 10 wt % of sodium dodecylsulfate (SDS) supplemented with 0.01M HCl was added after 6 hours. Viability of cells was then measured based on optical density at 570 nm of formazan produced after 24 hours.

[2] = test system: ascites sarcoma 180; conditions: cited from earlier work

Work on N.N.[Cl][Pt][Cl] [Free CDDP, Cisplatin] yielded an IC50 ([1]; culture time 48 hours) of 1.5 mg/L and an IC50 ([1]; culture time 72 hours) of 0.65 mg/L.
In the case of O=C1[O][Pt-2]2([NH2+]C3CCCC[C@H]3[NH2+]2)[O]C1=O (some centres unmarked) [Pt(oxalato)-(dach)], the ED90 ([2]; experimental animals bearing ascites sarcoma 180) is given as “excellent ED90”.
For NC1CCCCC1N.O=C([O-])CC(=O)[O-].[Pt+2] (centres unmarked) [Pt(malonato)-(dach)], the “therapeutic index relative to Pt(oxalato)-(cis-dach)” value ([2]; in vivo) is listed as “half or less” and the “ED90 dose compared with Pt(oxalato)-(dach)” value ([2]; ratio to Pt(oxalato)-(dach)) is listed as no less than 5 times.
